Molecular target: T1, FGF18 (Homo sapiens, UniProt O76093)
T1 construct: residues 50-194 of the 207-residue precursor (signal peptide 1-27 absent), expressed in Escherichia coli, purified
T1 sequence (O76093 50-194): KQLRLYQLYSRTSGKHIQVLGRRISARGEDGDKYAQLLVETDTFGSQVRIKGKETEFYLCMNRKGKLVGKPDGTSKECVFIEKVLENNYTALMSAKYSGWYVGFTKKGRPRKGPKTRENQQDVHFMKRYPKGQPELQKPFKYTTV
Experiment: isothermal titration calorimetry
Format: binding
Conditions: size-defined heparin oligosaccharide, sulfation pattern not stated; error exceeds the value; read-out: affinity

## heparin oligosaccharides of 6 dp
  Kd: 2.2 µM

From publication PMC3996155, “The crystal structure of fibroblast growth factor 18 (FGF18)” (Protein & Cell, 2014)
